The target of test [1] is T1, FLT3 D835H (Homo sapiens, UniProt P36888, D835H).
T1 construct: purchased DiscoverX (KINOMEscan); host or cells: E. coli (T7 phage) or HEK-293
T1 sequence (P36888 27-993 D835H): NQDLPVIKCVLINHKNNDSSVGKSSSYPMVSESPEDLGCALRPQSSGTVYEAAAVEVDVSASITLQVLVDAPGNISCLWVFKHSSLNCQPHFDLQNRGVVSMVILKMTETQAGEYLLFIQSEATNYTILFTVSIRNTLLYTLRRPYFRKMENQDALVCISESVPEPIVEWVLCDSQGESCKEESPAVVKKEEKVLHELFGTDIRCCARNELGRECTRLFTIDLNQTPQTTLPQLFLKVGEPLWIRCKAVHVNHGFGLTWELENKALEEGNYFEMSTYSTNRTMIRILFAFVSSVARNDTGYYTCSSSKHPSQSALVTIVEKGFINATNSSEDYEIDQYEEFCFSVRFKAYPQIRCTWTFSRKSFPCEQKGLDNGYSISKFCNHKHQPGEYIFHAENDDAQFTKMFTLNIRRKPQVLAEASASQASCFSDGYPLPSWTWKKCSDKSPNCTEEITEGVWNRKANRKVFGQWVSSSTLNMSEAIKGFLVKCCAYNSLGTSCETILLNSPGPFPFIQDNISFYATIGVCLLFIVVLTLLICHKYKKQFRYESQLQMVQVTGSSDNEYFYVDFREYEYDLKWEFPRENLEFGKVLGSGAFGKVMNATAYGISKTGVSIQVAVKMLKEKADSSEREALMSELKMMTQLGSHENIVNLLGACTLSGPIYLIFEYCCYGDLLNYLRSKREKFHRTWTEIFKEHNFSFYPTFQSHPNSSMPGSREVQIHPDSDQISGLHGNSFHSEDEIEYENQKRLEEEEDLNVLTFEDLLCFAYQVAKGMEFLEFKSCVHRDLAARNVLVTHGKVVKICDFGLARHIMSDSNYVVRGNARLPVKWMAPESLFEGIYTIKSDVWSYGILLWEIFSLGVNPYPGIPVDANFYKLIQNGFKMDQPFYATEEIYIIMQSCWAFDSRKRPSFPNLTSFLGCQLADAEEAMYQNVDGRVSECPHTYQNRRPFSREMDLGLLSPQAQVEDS
The experiment in a line: DiscoverX KINOMEscan competition binding, FLT3 D835H. The note with it: no ATP. From the text:
(§1) Kinase binding data were obtained for various exemplary compounds prepared according to Examples 2-15 using the DiscoverX KINOMEscan® active site-directed competition binding site-directed assay protocol described below. […] As a result, the data report thermodynamic interaction affinities (Kd values), rather than IC50 values that are dependent on ATP concentrations. The assay uses a DNA-tagged version of the protein kinase, and an immobilized ligand bound to a solid support. Compounds that directly or indirectly prevent kinase binding to the immobilized ligand reduce the amount of kinase captured on the solid support, which is detected using an ultra-sensitive qPCR method. Affinity constants reported from the assay have been reported to be independent of the immobilized ligand used that is coupled to the solid support (See supplemental information in Fabian, M. A. et. al., (2005) Nat. […] Wodicka, L. […] Biol. 17, 1241-1249.) Kinase-tagged T7 phage strains were prepared in an E. coli host derived from the BL21 strain. E. coli were grown to log-phase and infected with T7 phage and incubated with shaking at 32° C. until lysis. […] Kds were determined using an 11-point 3-fold compound dilution series with three DMSO control points. […] The kinase concentration in the eluates was measured by qPCR. Binding constants (Kds) were calculated with a standard dose-response curve using the Hill equation. […]

The target of test [2] is T2, FLT3 N841I (Homo sapiens, UniProt P36888, N841I).
T2 construct: purchased DiscoverX (KINOMEscan); host or cells: E. coli (T7 phage) or HEK-293
T2 sequence (P36888 27-993 N841I): T1 sequence (P36888 27-993 D835H) with H809D, N815I
The test can be described thus: DiscoverX KINOMEscan competition binding, FLT3 N841I. The note with it: no ATP.
Text: as §1

Numbering of substitutions follows the chain as printed. Some results are limits rather than exact numbers.

Take `COc1cc2ncc(-c3nc(N[C@H]4CNCC[C@@H]4F)c(F)cc3F)n2nc1C1CCC1` [Compound 15a, 6-(6-cyclobutyl-7-methoxyimidazo[1,2-b]pyridazin-3-yl)-3,5-difluoro-N-((3S,4S)-4-fluoropiperidin-3-yl)pyridin-2-amine]: the Kd in test [1] was less than 0.17 nM; in test [2] it was 0.25 nM.

As a reminder, the Kd is the free concentration of one partner at which half of the binding sites on the other are occupied at equilibrium, for simple one-to-one binding. Low readings indicate tighter binding, high ones weaker binding.
